Results: article PMC8658806, “New Carbonic Anhydrase-II Inhibitors from Marine Macro Brown Alga Dictyopteris hoytii Supported by In Silico Studies” (Molecules, 2021)

target: T1, purified bovine erythrocyte CA-II (Bos taurus, UniProt P00921); test: Carbonic anhydrase II inhibition (4-nitrophenyl acetate hydrolysis, microplate); format: biochemical; settings: not given
T1 construct: purified bovine erythrocyte CA-II; from tissue; host or cells: bovine erythrocytes
Experimental: The total reaction volume of 200 µL including 20 µL of test compounds, isolated from Dictyopteris hoytii, and prepared in DMSO, followed by the addition of 140 µL of HEPES–tris buffer, 20 µL of purified bovine erythrocyte CA-II (0.1 mg/mL) prepared in buffer, and 20 µL of a solution of 4-nitrophenyl acetate. Then, 20 µL of the test compound was incubated with the enzyme carbonic anhydrase (EC 4.2.1.1) for 15 min in 96-well flat bottom plates. The rate of product formation was monitored with the addition of 20 µL of 4-NPA as substrate, prepared in methanol at the final concentration of 0.7 mM, at 25 °C for 30 min with regular intervals of 1 min, by using microplate readers (Bio-Rad, Molecular Devices, CA, USA). HEPES-tris was used as a buffer for the reaction at a final concentration of 20 mM at pH 7.4.

T1 sequence (P00921 whole entry): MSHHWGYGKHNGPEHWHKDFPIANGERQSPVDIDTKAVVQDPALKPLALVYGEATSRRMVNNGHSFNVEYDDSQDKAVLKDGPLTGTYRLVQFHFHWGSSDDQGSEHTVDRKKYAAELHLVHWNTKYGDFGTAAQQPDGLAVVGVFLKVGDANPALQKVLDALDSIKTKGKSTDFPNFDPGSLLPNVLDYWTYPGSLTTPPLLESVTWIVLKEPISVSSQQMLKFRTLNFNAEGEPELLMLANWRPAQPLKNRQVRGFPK

| Compound | IC50 |
| --- | --- |
| C/C=C(\CC[C@@H](C)[C@H]1CC[C@H]2[C@@H]3CC=C4C[C@@H](O)CC[C@]4(C)[C@H]3CC[C@]12C)C(C)C [Compound 15, fucosterol] | 31.3 ± 1.34 µM |

same assay, conditions: Table 1 and text; unit given; NA = not active; read-out: IC50 ± SEM

| Compound | IC50 |
| --- | --- |
| C=CCCCCCCCCCCCCCCCC [Compound 7, octadec-1-ene] | 16.3 ± 0.31 µM |
| ethyl methyl 2-bromobenzene 1,4-dioate [Compound 13] | 39.5 ± 0.73 µM |

Results, then the compound that gave them:

| IC50 | Compound |
| --- | --- |
| 44.9 ± 1.1 µM | O=Cc1ccccc1/C=C/C(=O)O [Compound 1, (E)-3-(2-formylphenyl)acrylic acid] |
| 17.7 ± 2.01 µM | COC(OC)c1ccc(/C=C/C(=O)O)cc1 [Compound 5, (E)-3-(4-(dimethoxymethyl)phenyl)acrylic acid] |
| 53.1 ± 1.2 µM | O=Cc1ccc(C=O)cc1 [Compound 9, terephthalaldehyde] |
| 24.3 ± 1.38 µM | CCCCCCCCCCCCCCCCCCC=CCCCCCCCC(=O)O [Compound 19, n-octacos-9-enoic acid] |

same assay, conditions: Table 2 repeat of Table 1 values; read-out: IC50 ± S.E.M

| Compound | IC50 |
| --- | --- |
| ethyl methyl 2-bromobenzene 1,4-dioate [Compound 13] | 39.5 ± 0.73 µM |

same assay, conditions: preliminary screening; test concentration not given

| Compound | % Inhibition |
| --- | --- |
| C=CCCCCCCCCCCCCCCCC [Compound 7, octadec-1-ene] | 88.0% |
| C/C=C(\CC[C@@H](C)[C@H]1CC[C@H]2[C@@H]3CC=C4C[C@@H](O)CC[C@]4(C)[C@H]3CC[C@]12C)C(C)C [Compound 15, fucosterol] | 69.8% |
| ethyl methyl 2-bromobenzene 1,4-dioate [Compound 13] | 87.3% |

Results, then the compound that gave them:

| % Inhibition | Compound |
| --- | --- |
| 79.4% | O=Cc1ccccc1/C=C/C(=O)O [Compound 1, (E)-3-(2-formylphenyl)acrylic acid] |
| 93.9% | COC(OC)c1ccc(/C=C/C(=O)O)cc1 [Compound 5, (E)-3-(4-(dimethoxymethyl)phenyl)acrylic acid] |
| 93.9% | O=Cc1ccc(C=O)cc1 [Compound 9, terephthalaldehyde] |
| 87.3% | CCCCCCCCCCCCCCCCCCC=CCCCCCCCC(=O)O [Compound 19, n-octacos-9-enoic acid] |
